From US8709398B2, “Probiotic Bifidobacterium strains” (Alimentary Health Limited, priority 2007, dated 2014)

The compounds below were run on B. longum AH1205 (assay: Antibiotic sensitivity, minimum inhibitory concentration (MIC)). Settings: against B. longum AH1205.
Type: cell-based, Bifidobacterium longum

Row | minimum inhibitory concentration (MIC) | SMILES
1 | > 256 | Cc1ncc([N+](=O)[O-])n1CCO [metronidazole]
2 | 0.032 | CCC[C@@H]1C[C@@H](C(=O)N[C@@H]([C@H]2O[C@H](SC)[C@H](O)[C@@H](O)[C@H]2O)[C@H](C)Cl)N(C)C1 [clindamycin]

Row | SMILES | minimum inhibitory concentration (MIC)
3 | CN[C@H](CC(C)C)C(=O)N[C@H]1C(=O)N[C@@H](CC(N)=O)C(=O)N[C@H]2C(=O)N[C@H]3C(=O)N[C@H](C(=O)N[C@H](C(=O)O)c4cc(O)cc(O)c4-c4cc3ccc4O)[C@H](O)c3ccc(c(Cl)c3)Oc3cc2cc(c3O[C@@H]2O[C@H](CO)[C@@H](O)[C@H](O)[C@H]2O[C@H]2C[C@](C)(N)[C@H](O)[C@H](C)O2)Oc2ccc(cc2Cl)[C@H]1O [vancomycin] | 0.75
